One test relates to Arabidopsis anthers. As to the kind of experiment: Anthers cultured in vitro with epiBL, unreduced pollen microspores. The test is classed as cell-based. As to conditions: 0.1 μM epiBL on 2% sucrose medium for 24 h. The text has this:
(§1) Scale bars: 50 μm (FIG. 51A), 20 μm (FIGS. 51B-51E).

In the next test the test system is Arabidopsis embryo sacs. As to the kind of experiment: Induction of parthenogenesis and autonomous endosperm formation in pistils. The test is classed as cell-based. The following applies: 2 μM BR or 50 mM glucose prior to central cell callose deposition. How it is done: as §1
FIG. 52 Parthenogenesis in putatively diploid Arabidopsis embryo sacs induced by treatment of pistils in emasculated flowers with 2 μM BR or 50 mM glucose. To prevent fertilization, stigmas of pistils were clipped while anthers were immature. These pistils were also treated premeiotically with BR and glucose.
Functional apomixis requires not only apomeiosis but also parthenogenesis and, in plants, endosperm formation.

In test [1] the test system is B. stricta ovules. In words: In vitro culture of pistils on epiBL-containing medium, dyad formation. The test is classed as cell-based. How it is done:
(§2) FIG. 40 Frequencies of B. stricta ovules (dyads and tetrads) that were undergoing dyad formation (sexual or diplosporous) at the end of pistil treatment as affected by i) a 3 h in vivo floral dip in solutions containing epibrassinolide (epiBL) or ii) culturing of pistils in epiBL-containing media with in vitro culture of pistils initiated when pistils were in the 1-I or the 2-III to 2-IV stages. Numbers of correctly-staged ovules (dyads plus tetrads) per data point averaged 53 and ranged from 27-82.
(§3) epiBL is the naturally occurring and most biologically active form of BR. Applications of epiBL to pistils of sexual B. stricta, in vivo or in vitro, caused MMC to abort meiosis and instead produce dyads (FIG. 40). […] This induced 31% dyad formation, compared to 7% for the controls (a frequency often observed in sexual plants where they represent an intermediate stage of sexual meiosis). A similar dyad induction frequency (29%) was obtained by culturing 1-I to 2-II staged B. stricta pistils on a 0.1 μmol L−1 epiBL medium for 2 d (FIG. 40).

Test [2] has as its system Arabidopsis ovules. As to the kind of experiment: Pistil culture experiments with 5-azaC, BR (epiBL), DTBA, H2O2 and sugars, meiosis to apomeiosis. The test is classed as cell-based, Arabidopsis thaliana. As to conditions: BR alone. The text has this: (§4) To address redox instability, pistils were exposed to the antioxidant DTBA, an antioxidant that protects thiol groups in proteins from oxidization. To address bioenergetic stress, pistils were exposed to sugars. Glucose signaling is one of the most ancient and central signaling pathways in animals and plants and is involved in gene expression, primary and secondary metabolism, and regulation of growth and development (98). In Arabidopsis, rates of glycolysis and mitochondrial bioenergetics are sensed by TOR, which then control root meristem activation (18). If sufficient sugar is supplied, TOR should be activated. Active TOR protects BZR1 and other important BR-regulated enzymes from degradation, and this leads to plant growth (25). Factorial experiments were designed to test the effects of sucrose, glucose, epiBL, DTBA and 5-azaC on apomixis induction. These were designed for each of three sexual species, B. stricta, arabidopsis and cowpea. The experiments were performed and ratios of apomeiosis to meiosis were documented.
Two factorial experiments were conducted using immature arabidopsis pistils. In the first experiment, no 5-azaC, 5-azaC in the pretreatment only, or 5-azaC in both the pretreatment and the tissue culture medium were tested.
Cytological Analyses. Arabidopsis, Drummond's rockcress and cowpea floral buds were fixed in FAA (v/v: 3.7% formaldehyde, 5% acetic acid, 50% ethanol) for 48 h and cleared in 2:1 benzyl benzoate dibutyl phthalate (BBDP) (80): 1) 70% EtOH, 30 min; 95% EtOH, ≥4 h (2×); 95% EtOH:BBDP (2:1), 2 h; 95% EtOH:BBDP (1:2), 4 h; BBDP, 4 h; BBDP, overnight. Cleared pistils were mounted (up to 16 per slide) and measured from the pedicel base to the top of the stigma. Ovule development stages were studied using a BX53 microscope equipped with differential interference contrast optics and a MicroFire 599809 camera (Olympus, Center Valley, Pa., USA). For chromosome staining, pistils were soaked in 95% ethanol that contained 0.1 mg L^−1 4′,6-diamidino-2-phenylindole (DAPI). Callose was stained by soaking DAPI stained pistils in aqueous aniline blue (Millipore Sigma, Darmstadt, Germany) (124). DAPI fluorescence was detected with a Zeiss LSM 510 confocal microscope with excitation at 408 nm, dichroic reflector at HFT488 nm and detection at 450-650 nm. Callose was distinguished from DAPI by detection at 550-650 nm.
Presence of the following ovule characteristics were recorded: MMCs, Antennaria type diplosporous 1-2 nucleate ES, sexual or Taraxacum type diplosporous dyads, sexual tetrads, sexual or Taraxacum type diplosporous 1-2 nucleate ES, AI and AES. Developmental stages for the majority of ovules per pistil were recorded, and pistil lengths for the following stages (125) were recorded: 1-II, ovule meristems protruding from placentae (precedes MMC formation); 2-IV, meiosis; 3-III, vacuole in immature ES beginning to appear; 4-VI, nuclear divisions in endosperm underway. To determine average timing of meiosis onset, pistils primarily containing premeiotic (2-III) ovules were located under low light conditions 1 h before the lights came on in the morning. Corresponding sepals were marked with a small point permanent marker. Pistils were then randomly harvested for analysis when the lights came on and 3 h thereafter.
Pistils were aseptically excised, but not disinfested, at the early pre-MMC to MMC stages and incubated in vitro. The basal culture medium for arabidopsis and Drummond's rockcress was MS (126) (Caisson Laboratories, Inc., Smithfield, UT USA) with 20 g L^−1 sucrose or glucose and solidified with 1.45 g L^−1 Phytogel (MilliporeSigma).

Test [3] deals with Arabidopsis ovules. As to the kind of experiment: Topical application of BR or glucose to intact pistils, apomeiosis induction. The test is classed as in vivo, Arabidopsis thaliana. As for the experimental part:
Most of the functional megaspores from these treatments originated by Taraxacum-type diplospory (FIG. 42) with frequent subepidermal layer of cells with or without a parietal cell. A few cases of Antennaria-type diplospory were also observed (FIG. 43).
(§5) Cytological Analyses. Arabidopsis, Drummond's rockcress and cowpea floral buds were fixed in FAA (v/v: 3.7% formaldehyde, 5% acetic acid, 50% ethanol) for 48 h and cleared in 2:1 benzyl benzoate dibutyl phthalate (BBDP) (80): 1) 70% EtOH, 30 min; 95% EtOH, ≥4 h (2×); 95% EtOH:BBDP (2:1), 2 h; 95% EtOH:BBDP (1:2), 4 h; BBDP, 4 h; BBDP, overnight. Cleared pistils were mounted (up to 16 per slide) and measured from the pedicel base to the top of the stigma. […] DAPI fluorescence was detected with a Zeiss LSM 510 confocal microscope with excitation at 408 nm, dichroic reflector at HFT488 nm and detection at 450-650 nm. […]
Presence of the following ovule characteristics were recorded: MMCs, Antennaria type diplosporous 1-2 nucleate ES, sexual or Taraxacum type diplosporous dyads, sexual tetrads, sexual or Taraxacum type diplosporous 1-2 nucleate ES, AI and AES. […]
For topical applications, sepals of floral buds were separated, and pistil lengths were measured using a dissecting microscope. […]

In test [4] the test system is B. stricta (Drummond's rockcress) ovules. In words: Pistil culture factorial experiment with sucrose, glucose, epiBL, DTBA and 5-azaC. The test is classed as cell-based, Boechera stricta.
Description: as §4
Both the carbohydrate variable and the other components variable were highly significant (P<0.001). Additionally, three ovules from the sucrose plus epiBL treatment (epiBL in the pretreatment and in the medium) had formed aposporous embryo sacs (AES). Also, two ovules, one from the sucrose-epiBL-epiBL treatment and one from the glucose-DTBA-DTBA treatment, had formed Antennaria-type diplosporous embryo sacs (FIGS. 48A-48H).
as §5
Presence of the following ovule characteristics were recorded: MMCs, Antennaria type diplosporous 1-2 nucleate ES, sexual or Taraxacum type diplosporous dyads, sexual tetrads, sexual or Taraxacum type diplosporous 1-2 nucleate ES, AI and AES. Developmental stages for the majority of ovules per pistil were recorded, and pistil lengths for the following stages (125) were recorded: 1-II, ovule meristems protruding from placentae (precedes MMC formation); 2-IV, meiosis; 3-III, vacuole in immature ES beginning to appear; 4-VI, nuclear divisions in endosperm underway. […]

Test [5] concerns B. stricta ovules. As to the kind of experiment: In vivo floral dip in epiBL solution, dyad formation. The following applies: flower buds dipped 3 h in 10 μmol L−1 epiBL; controls 7%. As for the experimental part:
as §2, §3

With `CC(C)[C@@H](C)[C@@H](O)[C@H](O)[C@@H](C)[C@H]1CC[C@H]2[C@@H]3COC(=O)[C@H]4C[C@H](O)[C@H](O)C[C@]4(C)[C@H]3CC[C@]12C` [epiBL, epibrassinolide], the unreduced pollen microspores result in the test on Arabidopsis anthers is “Unreduced pollen dyads of microspores”. In addition, the “callose deposition, parthenogenesis and autonomous endosperm formation” value with Arabidopsis embryo sacs was “prevented stress-associated callose deposition and activated parthenogenesis and autonomous endosperm formation”. The dyad induction frequency with B. stricta ovules [1] (1-I to 2-II staged pistils on 0.1 μmol L−1 epiBL medium for 2 d) turned out to be 29%. Besides, the “unreduced embryo sacs forming from epiBL-induced dyads” value in the test with B. stricta ovules [1] (epiBL treatments) is on record as “only rarely observed”. Also, the “ratios of observed dyads” value in the test on B. stricta ovules [1] (epiBL treatments (in vivo or in vitro)) is on record as 30%. Further, in the test on Arabidopsis ovules [2], the AES formation entry is listed as “Low levels” and the “ovules with meiosis stopped, MMC undergoing Taraxacum type dyad or ES formation” value was determined as 45%. Further, in the test with Arabidopsis ovules [3] (intact pistils treated with BR or glucose solutions (2 μM BR or 50 mM glucose)), the apomeiotic dyad formation entry is listed as “induced high frequency apomeiotic dyad formation”. In addition, the Taraxacum-type diplospory induction entry in the test on Arabidopsis ovules [3] (topical applications 24 h before or immediately before meiosis) is “induced Taraxacum-type diplospory”. In addition, the “number of ovules that formed aposporous embryo sacs (AES)” value in test [4] (sucrose plus epiBL, epiBL in the pretreatment and in the medium) is reported as “three”. Also, the “number of ovules that formed Antennaria-type diplosporous embryo sacs” value in test [4] (sucrose-epiBL-epiBL treatment) was “one”. Further, the dyad formation in the test on B. stricta ovules [5] is given as 31%.

Source of the values: US11820994B2, “Methods of inducing apomictic or sexual reproduction” (priority 2018, dated 2023).
